Measured values taken from ChEMBL document CHEMBL5303573, “Mapping human microbiome drug metabolism by gut bacteria and their genes” (Nature, 2019).

Legend:
[1] = The drug is tested on Bacteroides sp. WH2 strain: WH2 for biotransformation. The drug concentrations were measured before and after a 12-h incubation by liquid-chromatography-coupled mass spectrometry (LC–MS); settings: bacteroides sp. wh2, 12 h, 2 µM
[2] = bacteroides stercoris, 12 h, 2 µM
Description: The drug is tested on Bacteroides stercoris strain: ATCC43183 for biotransformation. The drug concentrations were measured before and after a 12-h incubation by liquid-chromatography-coupled mass spectrometry (LC–MS)

[3] = The drug is tested on Bacteroides cellulosilyticus strain: DSM14838 for biotransformation. The drug concentrations were measured before and after a 12-h incubation by liquid-chromatography-coupled mass spectrometry (LC–MS); settings: 2 µM
[4] = The drug is tested on Ruminococcus gnavus strain: ATCC29149 for biotransformation. The drug concentrations were measured before and after a 12-h incubation by liquid-chromatography-coupled mass spectrometry (LC–MS); settings: mediterraneibacter gnavus, 2 µM
[5] = The drug is tested on Bacteroides pectinophilus strain: ATCC43243 for biotransformation. The drug concentrations were measured before and after a 12-h incubation by liquid-chromatography-coupled mass spectrometry (LC–MS); settings: 2 µM
[6] = The drug is tested on Escherichia coli strain: BW25113 for biotransformation. The drug concentrations were measured before and after a 12-h incubation by liquid-chromatography-coupled mass spectrometry (LC–MS); settings: 2 µM
[7] = The drug is tested on Subdoligranulum variabile strain: DSM15176 for biotransformation. The drug concentrations were measured before and after a 12-h incubation by liquid-chromatography-coupled mass spectrometry (LC–MS); settings: 2 µM
[8] = The drug is tested on Bacteroides xylanisolvens strain: DSM18836 for biotransformation. The drug concentrations were measured before and after a 12-h incubation by liquid-chromatography-coupled mass spectrometry (LC–MS); settings: 2 µM
[9] = The drug is tested on Blautia hansenii strain: DSM20583 for biotransformation. The drug concentrations were measured before and after a 12-h incubation by liquid-chromatography-coupled mass spectrometry (LC–MS); settings: 2 µM
[10] = The drug is tested on Bacteroides dorei strain: DSM17855 for biotransformation. The drug concentrations were measured before and after a 12-h incubation by liquid-chromatography-coupled mass spectrometry (LC–MS); settings: phocaeicola dorei, 2 µM
[11] = bacteroides fragilis, 12 h, 2 µM
Description: The drug is tested on Bacteroides fragilis strain: 3397 (T10) for biotransformation. The drug concentrations were measured before and after a 12-h incubation by liquid-chromatography-coupled mass spectrometry (LC–MS)

[12] = The drug is tested on Providencia stuartii strain: ATCC25827 for biotransformation. The drug concentrations were measured before and after a 12-h incubation by liquid-chromatography-coupled mass spectrometry (LC–MS); settings: 2 µM
[13] = The drug is tested on Bacteroides coprophilus strain: DSM18228 for biotransformation. The drug concentrations were measured before and after a 12-h incubation by liquid-chromatography-coupled mass spectrometry (LC–MS); settings: 2 µM
[14] = The drug is tested on Bacteroides uniformis strain: ATCC8492 for biotransformation. The drug concentrations were measured before and after a 12-h incubation by liquid-chromatography-coupled mass spectrometry (LC–MS); settings: 2 µM
[15] = The drug is tested on Providencia rettgeri strain: DSM1131 for biotransformation. The drug concentrations were measured before and after a 12-h incubation by liquid-chromatography-coupled mass spectrometry (LC–MS); type: ADME; design: dose 2 uM, timepoint 0 vs 12 hours; settings: 2 µM
[16] = The drug is tested on Collinsella intestinalis strain: DSM13280 for biotransformation. The drug concentrations were measured before and after a 12-h incubation by liquid-chromatography-coupled mass spectrometry (LC–MS); settings: 2 µM
[17] = The drug is tested on Bifidobacterium longum subsp. Infantis strain: CCUG52486 for biotransformation. The drug concentrations were measured before and after a 12-h incubation by liquid-chromatography-coupled mass spectrometry (LC–MS); settings: 2 µM
[18] = bacteroides intestinalis, 12 h, 2 µM
Description: The drug is tested on Bacteroides intestinalis strain: DSM17393 for biotransformation. The drug concentrations were measured before and after a 12-h incubation by liquid-chromatography-coupled mass spectrometry (LC–MS)

[19] = The drug is tested on Bifidobacterium ruminantium strain: fecal isolate for biotransformation. The drug concentrations were measured before and after a 12-h incubation by liquid-chromatography-coupled mass spectrometry (LC–MS); settings: 2 µM
[20] = bacteroides fragilis, 12 h, 2 µM; remark: listed apart in the source
Description: The drug is tested on Bacteroides fragilis strain: DS-208 for biotransformation. The drug concentrations were measured before and after a 12-h incubation by liquid-chromatography-coupled mass spectrometry (LC–MS)

Structure (SMILES) | Bacterial Biotransformation [1] | Bacterial Biotransformation [2] | Bacterial Biotransformation [3] | Bacterial Biotransformation [4] | Bacterial Biotransformation [5] | Bacterial Biotransformation [6] | Bacterial Biotransformation [7] | Bacterial Biotransformation [8] | Bacterial Biotransformation [9] | Bacterial Biotransformation [10] | Bacterial Biotransformation [11] | Bacterial Biotransformation [12] | Bacterial Biotransformation [13] | Bacterial Biotransformation [14] | Bacterial Biotransformation [15] | Bacterial Biotransformation [16] | Bacterial Biotransformation [17] | Bacterial Biotransformation [18] | Bacterial Biotransformation [19] | Bacterial Biotransformation [20]
CN(C)C(=O)C(CCN1CCC(O)(c2ccc(Cl)cc2)CC1)(c1ccccc1)c1ccccc1 [LOPERAMIDE] | Compound NOT metabolized | Compound metabolized | Compound NOT metabolized | Compound NOT metabolized | Compound NOT metabolized | Compound metabolized | Compound NOT metabolized | Compound metabolized | Compound metabolized | Compound metabolized | Compound metabolized | Compound NOT metabolized | Compound metabolized | Compound metabolized | Compound metabolized |  |  |  |  | 
OC(c1cc(C(F)(F)F)nc2c(C(F)(F)F)cccc12)C1CCCCN1 (stereo unspecified) [MEFLOQUINE] | Compound NOT metabolized | Compound NOT metabolized | Compound NOT metabolized | Compound NOT metabolized | Compound NOT metabolized | Compound metabolized | Compound NOT metabolized | Compound NOT metabolized |  | Compound NOT metabolized | Compound NOT metabolized | Compound NOT metabolized | Compound NOT metabolized | Compound NOT metabolized | Compound NOT metabolized | Compound NOT metabolized | Compound NOT metabolized | Compound NOT metabolized |  | 
CC12CC3CC(C)(C1)CC(N)(C3)C2 [MEMANTINE] | Compound NOT metabolized | Compound NOT metabolized |  | Compound NOT metabolized | Compound NOT metabolized | Compound NOT metabolized | Compound NOT metabolized |  |  | Compound NOT metabolized | Compound NOT metabolized | Compound NOT metabolized | Compound NOT metabolized | Compound NOT metabolized |  | Compound NOT metabolized | Compound NOT metabolized | Compound NOT metabolized | Compound metabolized | Compound NOT metabolized
COC(=O)C(c1ccccc1)C1CCCCN1 (stereo unspecified) [METHYLPHENIDATE] | Compound NOT metabolized | Compound NOT metabolized |  | Compound NOT metabolized | Compound NOT metabolized | Compound metabolized | Compound NOT metabolized | Compound NOT metabolized | Compound metabolized | Compound NOT metabolized | Compound NOT metabolized | Compound NOT metabolized |  | Compound NOT metabolized |  | Compound NOT metabolized | Compound NOT metabolized | Compound NOT metabolized | Compound metabolized | Compound NOT metabolized
CC(=O)O[C@H]1C(=O)[C@@]2(C)[C@H]([C@H](OC(=O)c3ccccc3)[C@]3(O)C[C@H](OC(=O)[C@H](O)[C@@H](NC(=O)c4ccccc4)c4ccccc4)C(C)=C1C3(C)C)[C@]1(OC(C)=O)CO[C@@H]1C[C@@H]2O [PACLITAXEL] | Compound NOT metabolized | Compound NOT metabolized | Compound NOT metabolized | Compound NOT metabolized | Compound NOT metabolized | Compound NOT metabolized | Compound NOT metabolized | Compound metabolized |  |  | Compound NOT metabolized | Compound NOT metabolized | Compound NOT metabolized | Compound metabolized |  | Compound NOT metabolized | Compound NOT metabolized | Compound NOT metabolized | Compound NOT metabolized | Compound metabolized
CC(C)(C)NC[C@H](O)COc1ccccc1C1CCCC1.CC(C)(C)NC[C@H](O)COc1ccccc1C1CCCC1.O=S(=O)(O)O [PENBUTOLOL SULFATE] | Compound NOT metabolized | Compound NOT metabolized | Compound NOT metabolized | Compound NOT metabolized |  | Compound NOT metabolized | Compound NOT metabolized | Compound NOT metabolized |  |  |  | Compound NOT metabolized |  | Compound metabolized |  | Compound NOT metabolized | Compound NOT metabolized | Compound NOT metabolized |  | 
O=C(NC(Cc1cc(=O)[nH]c2ccccc12)C(=O)O)c1ccc(Cl)cc1 (stereo unspecified) [REBAMIPIDE] |  | Compound NOT metabolized | Compound NOT metabolized | Compound NOT metabolized | Compound NOT metabolized |  | Compound NOT metabolized | Compound metabolized | Compound NOT metabolized | Compound metabolized | Compound NOT metabolized | Compound NOT metabolized | Compound NOT metabolized | Compound metabolized | Compound NOT metabolized | Compound NOT metabolized | Compound NOT metabolized | Compound NOT metabolized | Compound NOT metabolized | 
CCN(CC)CCNC(=O)c1cc(S(C)(=O)=O)ccc1OC [TIAPRIDE] | Compound NOT metabolized |  |  | Compound NOT metabolized | Compound NOT metabolized | Compound NOT metabolized | Compound NOT metabolized |  | Compound NOT metabolized | Compound NOT metabolized |  | Compound NOT metabolized |  | Compound NOT metabolized | Compound NOT metabolized | Compound NOT metabolized | Compound NOT metabolized | Compound NOT metabolized |  | 
O=C(O[C@H]1C[C@H]2CC[C@@H](C1)[N+]21CCCC1)C(O)(c1ccccc1)c1ccccc1.[Cl-] [TROSPIUM CHLORIDE] | Compound NOT metabolized | Compound NOT metabolized | Compound NOT metabolized | Compound NOT metabolized |  | Compound NOT metabolized | Compound NOT metabolized | Compound NOT metabolized |  | Compound NOT metabolized | Compound NOT metabolized | Compound NOT metabolized |  | Compound NOT metabolized | Compound NOT metabolized | Compound NOT metabolized | Compound NOT metabolized | Compound NOT metabolized | Compound NOT metabolized | Compound NOT metabolized
